Patent EP1401829B1, “NOVEL HETEROCYCLIC ANTIBACTERIAL COMPOUNDS” (Microbiotix, Inc., priority 2001, dated 2002)
Values after ≈ are worked out from the molar mass of the structure shown. Like-named read-outs stand apart in the source and are kept apart here.

Experiments:
[1] = molecular target: T1, B. subtilis Pol IIIC (Bacillus subtilis, UniProt P13267); assay: Polymerase IIIC (Pol IIIC) assay, determination of Ki values; format: biochemical; conditions: Ki (µM) Pol IIIC, assay in absence of dGTP or dATP; Ki is the concentration that reduces control polymerase IIIC activity by 50 percent
T1 construct: made in house
T1 sequence (P13267 whole entry): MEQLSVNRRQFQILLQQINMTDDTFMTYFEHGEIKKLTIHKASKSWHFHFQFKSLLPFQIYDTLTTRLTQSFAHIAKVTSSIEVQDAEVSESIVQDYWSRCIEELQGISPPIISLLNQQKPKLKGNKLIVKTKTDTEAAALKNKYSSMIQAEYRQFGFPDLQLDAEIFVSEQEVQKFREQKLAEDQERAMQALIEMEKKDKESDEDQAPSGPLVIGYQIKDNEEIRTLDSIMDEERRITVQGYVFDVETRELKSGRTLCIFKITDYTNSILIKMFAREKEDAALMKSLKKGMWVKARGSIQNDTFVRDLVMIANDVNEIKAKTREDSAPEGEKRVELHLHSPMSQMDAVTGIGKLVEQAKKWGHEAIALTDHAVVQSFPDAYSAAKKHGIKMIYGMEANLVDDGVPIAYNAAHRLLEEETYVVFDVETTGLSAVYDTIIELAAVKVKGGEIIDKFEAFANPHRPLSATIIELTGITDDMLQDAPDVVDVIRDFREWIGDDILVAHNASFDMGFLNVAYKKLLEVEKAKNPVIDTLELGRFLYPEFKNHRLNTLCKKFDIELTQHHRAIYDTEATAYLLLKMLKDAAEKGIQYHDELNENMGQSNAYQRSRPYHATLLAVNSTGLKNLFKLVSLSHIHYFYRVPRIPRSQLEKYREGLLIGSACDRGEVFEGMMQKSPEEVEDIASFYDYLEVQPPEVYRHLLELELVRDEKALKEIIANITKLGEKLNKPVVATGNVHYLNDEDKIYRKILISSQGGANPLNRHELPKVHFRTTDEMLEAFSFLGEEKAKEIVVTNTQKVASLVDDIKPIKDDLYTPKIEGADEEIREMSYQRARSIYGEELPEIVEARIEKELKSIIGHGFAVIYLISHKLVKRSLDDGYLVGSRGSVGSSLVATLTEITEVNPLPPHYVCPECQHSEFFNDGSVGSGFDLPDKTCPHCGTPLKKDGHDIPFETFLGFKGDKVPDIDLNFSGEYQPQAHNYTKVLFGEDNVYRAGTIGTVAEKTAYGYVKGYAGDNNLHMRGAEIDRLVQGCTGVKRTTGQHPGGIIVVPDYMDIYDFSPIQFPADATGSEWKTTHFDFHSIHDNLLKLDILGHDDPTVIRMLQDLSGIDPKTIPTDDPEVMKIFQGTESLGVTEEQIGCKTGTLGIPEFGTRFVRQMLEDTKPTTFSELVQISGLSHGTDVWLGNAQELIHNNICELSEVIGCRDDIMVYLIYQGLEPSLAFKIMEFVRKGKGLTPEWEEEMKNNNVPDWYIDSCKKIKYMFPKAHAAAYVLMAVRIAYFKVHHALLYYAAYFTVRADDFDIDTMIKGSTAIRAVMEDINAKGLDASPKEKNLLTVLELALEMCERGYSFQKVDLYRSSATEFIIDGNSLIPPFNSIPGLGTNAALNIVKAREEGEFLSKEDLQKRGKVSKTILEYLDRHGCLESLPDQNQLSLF
Protocol: (§1) The following methods were used to characterize representative compounds. Minimal Inhibitory Concentration (MIC) determinations. MIC values were determined in 96 well plates, with bacterial growth monitored at OD 600 nm in 200µl following an initial bacterial seeding at approximately 1x10^5 colony forming units (CFU)/ml. Each drug is evaluated at five concentrations, with five data points at each dilution. MIC values (µg/ml) were determined against actively growing cultures in Heart-Brain Infusion (HBI) medium. Cell growth in cultures supplemented with a test compound was calculated as a percent of control at OD 600 nm after 16 to 18 hours at 37°C. […] Polymerase IIIC (Pol IIIC) assay. DNA polymerase activity (or inhibition thereof) was measured in a 96-well plate format. B. subtilis Pol IIIC was isolated as described by Hammond and Brown (Protein Expr. Purif., 3: 65-70 (1992)). Each 25 µl assay contained 30 mM Tris, pH 7.5, 10 mM magnesium acetate, 4 mM dithiothreitol, 20% glycerol, with 25 µM dATP, dCTP, dGTP and 10 µM dTTP (^3H-labelled at 1.44 Ci/mmole) and 0.4 mg/ml activated calf thymus DNA as substrates, as described previously (see Barnes et al, op. cit). Assays were initiated by the addition of 0.025 to 0.06 units of enzyme 1 unit is the amount required to incorporate 250 pmoles of [^3H] dTMP in a standard assay), incubated for 10 minutes at 30°C and terminated by the addition of 200 µl of cold 10% trichloroacetic acid (TCA),10 mM sodium pyrophosphate. Precipitated labeled DNA was collected on glass fiber filter plates, washed, dried, and counted in a liquid scintillation counter. Determination of Ki values. DNA polymerase activity was measured in a 96-well plate format in the absence of dGTP or dATP, depending on the structure of the test compound. Each 25 µl assay contained 30 mM Tris, pH 7.5, 10 mM magnesium acetate, 4 mM dithiothreitol, 20% glycerol, with 25 µM dATP, dCTP, and 10 µM dTTP (^3H-labelled at 1.44 Ci/mmole) and 0.4 mg/ml activated calf thymus DNA as substrates, as described previously. […] Assays were initiated by the addition of 0.025 to 0.06 units of enzyme (1 unit is the amount required to incorporate 250 pmoles of [^3H] dTMP in a standard assay), incubated for 10 minutes at 30 °C and terminated by the addition of 200 µl of cold 10% trichloroacetic acid, 10 mM sodium pyrophosphate. Precipitated labeled DNA was collected on glass fiber filter plates, washed, dried, and counted in a liquid scintillation counter. Ki is the concentration of test compound that reduces the control polymerase IIIC activity by 50 percent.

[2] = test system: B. subtilis; assay: Minimal Inhibitory Concentration (MIC) determination, 96 well plates; format: cell-based, Bacillus subtilis; conditions: Bacillus subtilis; HBI medium, 16 to 18 hours at 37°C; read-out: MIC (µg/ml) B. subtilis
Protocol: as §1
(§2) MIC values were determined for the Gram positive bacteria Bacillus subtilis, Staphylococcus aureus (two strains), Enterococcus fecalis, Enterococcus fecium, and for the Gram negative bacterium Escherichia coli.

[3] = test system: S. aureus; assay: as above; format: cell-based, Staphylococcus aureus; conditions: Staphylococcus aureus; HBI medium, 16 to 18 hours at 37°C; read-out: MIC (µg/ml) S. aureus
Protocol: (§3) The following methods were used to characterize representative compounds. Minimal Inhibitory Concentration (MIC) determinations. MIC values were determined in 96 well plates, with bacterial growth monitored at OD 600 nm in 200µl following an initial bacterial seeding at approximately 1x10^5 colony forming units (CFU)/ml. Each drug is evaluated at five concentrations, with five data points at each dilution. MIC values (µg/ml) were determined against actively growing cultures in Heart-Brain Infusion (HBI) medium. Cell growth in cultures supplemented with a test compound was calculated as a percent of control at OD 600 nm after 16 to 18 hours at 37°C. This plate format conserves test compound and provides precise, quantitative data with low standard deviation determinations. Polymerase IIIC (Pol IIIC) assay. DNA polymerase activity (or inhibition thereof) was measured in a 96-well plate format. B. subtilis Pol IIIC was isolated as described by Hammond and Brown (Protein Expr. Purif., 3: 65-70 (1992)). Each 25 µl assay contained 30 mM Tris, pH 7.5, 10 mM magnesium acetate, 4 mM dithiothreitol, 20% glycerol, with 25 µM dATP, dCTP, dGTP and 10 µM dTTP (^3H-labelled at 1.44 Ci/mmole) and 0.4 mg/ml activated calf thymus DNA as substrates, as described previously (see Barnes et al, op. cit). Assays were initiated by the addition of 0.025 to 0.06 units of enzyme 1 unit is the amount required to incorporate 250 pmoles of [^3H] dTMP in a standard assay), incubated for 10 minutes at 30°C and terminated by the addition of 200 µl of cold 10% trichloroacetic acid (TCA),10 mM sodium pyrophosphate. Precipitated labeled DNA was collected on glass fiber filter plates, washed, dried, and counted in a liquid scintillation counter. Determination of Ki values. DNA polymerase activity was measured in a 96-well plate format in the absence of dGTP or dATP, depending on the structure of the test compound. Each 25 µl assay contained 30 mM Tris, pH 7.5, 10 mM magnesium acetate, 4 mM dithiothreitol, 20% glycerol, with 25 µM dATP, dCTP, and 10 µM dTTP (^3H-labelled at 1.44 Ci/mmole) and 0.4 mg/ml activated calf thymus DNA as substrates, as described previously. To each well were added 2 µl of compound solution to give final concentrations ranging from 20 - 0.027 µg/ml in the assay. Assays were initiated by the addition of 0.025 to 0.06 units of enzyme (1 unit is the amount required to incorporate 250 pmoles of [^3H] dTMP in a standard assay), incubated for 10 minutes at 30 °C and terminated by the addition of 200 µl of cold 10% trichloroacetic acid, 10 mM sodium pyrophosphate. Precipitated labeled DNA was collected on glass fiber filter plates, washed, dried, and counted in a liquid scintillation counter. Ki is the concentration of test compound that reduces the control polymerase IIIC activity by 50 percent.
as §2

[4] = test system: S.aureus (Smith); assay: as above; format: cell-based, Staphylococcus aureus; conditions: Staphylococcus aureus; HBI medium, 16 to 18 hours at 37°C; read-out: MIC (µg/ml) S.aureus (Smith)
Protocol: as §1, §2

[5] = test system: E. fecalis; assay: as above; format: cell-based, Enterococcus fecalis; conditions: Enterococcus; HBI medium, 16 to 18 hours at 37°C; read-out: MIC (µg/ml) E. fecalis
Protocol: as §1, §2

[6] = test system: E. fecium; assay: as above; format: cell-based, Enterococcus fecium; conditions: Enterococcus; HBI medium, 16 to 18 hours at 37°C; read-out: MIC (µg/ml) E. fecium
Protocol: as §1, §2

[7] = test system: E. coli; assay: as above; format: cell-based, Escherichia coli; conditions: Escherichia coli, read-out: MIC (µg/ml) E. coli
Protocol: as §3, §2

[8] = HBI medium, 16 to 18 hours at 37°C

| Compound | Ki [1] | MIC [2] | MIC [3] | MIC [4] | MIC [5] | MIC [6] | MIC [7] | MIC [7, 8] |
| --- | --- | --- | --- | --- | --- | --- | --- | --- |
| CCc1cc(Nc2cc(=O)n(CCCCCN3CCCC4CN(c5cc6c(cc5F)c(=O)c(C(=O)O)cn6CC)CC43)c(=O)[nH]2)ccc1C (centres unmarked) [Compound 80, 3-{5-[1-(1-ethyl-3-carboxy-4-oxo-6-fluoro-7-quinolyl)-3-(1,3-diazabicyclononyl)]pentyl}-6-(3-ethyl-4-methylanilino)uracil] | 0.037 µM | 2.5 µg/mL (≈ 3.72 µM) | 7.5 µg/mL (≈ 11.1 µM) | 5 µg/mL (≈ 7.43 µM) | 12.5 µg/mL (≈ 18.6 µM) | 20 µg/mL (≈ 29.7 µM) | 0.8 µg/mL (≈ 1.19 µM) |  |
| CCc1cc(Nc2cc(=O)n(CCCCCNC3CCN(c4cc5c(cc4F)c(=O)c(C(=O)O)cn5C4CC4)C3)c(=O)[nH]2)ccc1C (centres unmarked) [Compound 83, 3-{5-[1-(1-cyclopropyl-3-carboxy-4-oxo-6-fluoro-7-quinolyl)-3-(pyrrolidinylamino)]pentyl}-6-(3-ethyl-4-methylanilino)uracil] | 0.041 µM | 3.7 µg/mL (≈ 5.74 µM) | 20 µg/mL (≈ 31 µM) | 5 µg/mL (≈ 7.75 µM) | 5 µg/mL (≈ 7.75 µM) | 40 µg/mL (≈ 62 µM) |  | > 80 µg/mL |
| Cc1ccc(Nc2cc(=O)n(CCCCN3CCN(c4c(F)cc5c(=O)c(C(=O)O)cn(C6CC6)c5c4F)C[C@H]3C)c(=O)[nH]2)cc1C [Compound 98, (R)-3-{4-[1-(1-cyclopropyl-3-carboxy-4-oxo-6,8-difluoro-7-quinolyl)-3-methyl-4-piperazinyl]butyl}-6-(3,4-dimethylanilino)uracil] | 0.029 µM | 0.313 µg/mL (≈ 0.482 µM) | 1.25 µg/mL (≈ 1.93 µM) | 0.625 µg/mL (≈ 0.963 µM) | 1.25 µg/mL (≈ 1.93 µM) | 1.25 µg/mL (≈ 1.93 µM) |  | 5 µg/mL (≈ 7.71 µM) |
| CCc1cc(Nc2cc(=O)n(CCCCN3CCN(c4ncc5c(=O)c(C(=O)O)cn(CC)c5n4)CC3)c(=O)[nH]2)ccc1C [Compound 79, 3-{4-[1-(1-ethyl-3-carboxy-4-oxo-6,8-diaza-7-quinolyl)-4-piperazinyl]butyl}-6-(3-ethyl-4-methylanilino)uracil] | 0.028 µM | 0.156 µg/mL (≈ 0.259 µM) | 1.25 µg/mL (≈ 2.07 µM) | 0.95 µg/mL (≈ 1.58 µM) | 2.5 µg/mL (≈ 4.15 µM) | 3.7 µg/mL (≈ 6.14 µM) |  | > 80 µg/mL |
| CCc1cc(Nc2cc(=O)n(CCCCN3CCN(c4cc5c(cc4F)c(=O)c(C(=O)O)cn5C4CC4)C(C)C3)c(=O)[nH]2)ccc1C (centres unmarked) [Compound 69, 3-{4-[1-(1-cyclopropyl-3-carboxy-4-oxo-6-fluoro-7-quinolyl)-2-methyl-4-piperazinyl]butyl}-6-(3-ethyl-4-methylanilino)uracil] | 0.026 µM | 0.23 µg/mL (≈ 0.357 µM) | 0.625 µg/mL (≈ 0.969 µM) | 0.46 µg/mL (≈ 0.713 µM) | 0.95 µg/mL (≈ 1.47 µM) | 1.25 µg/mL (≈ 1.94 µM) |  | 30 µg/mL (≈ 46.5 µM) |
